Source: ChEMBL document CHEMBL4266050, “Metabolomics-Driven Discovery of Meroterpenoids from a Mussel-Derived Penicillium ubiquetum” (J Nat Prod, 2018)
Activity calls are given as the source filed them. The rule behind the calls is not given here.

Legend:
[1] = Stability of the compound; type: physicochemical
KB [2] = assay: Cytotoxicity against human KB cells at 50 uM by MTT assay; type: functional, cell-based
MCF7 [3] = assay: Cytotoxicity against human MCF7 cells at 50 uM by MTT assay; type: functional, cell-based
MCF7 [4] = assay: Cytotoxicity against human MCF7 cells by MTT assay; type: functional, cell-based
KB [5] = assay: Cytotoxicity against human KB cells by MTT assay; type: functional, cell-based

Compound | Stability [1] | Activity (KB [2]) | Activity (MCF7 [3]) | IC50 (MCF7 [4]) | IC50 (KB [5])
COC(=O)[C@]12C(=O)[C@H](C)O[C@@H]3OC(=O)[C@](C)(C[C@H]4[C@@H](C)C5=CC(=O)OC(C)(C)C5=C[C@@H](O)[C@@]41C)[C@@H]32 | Unstable |  |  |  | 
COC(=O)O[C@@H]1C=C2C(=CC(=O)OC2(C)C)[C@H](C)[C@@H]2C[C@@]3(C)C(=O)O[C@H]4O[C@@H](C)C(=O)[C@H]([C@H]43)[C@@]12C |  | inactive | inactive |  | 
COC(=O)[C@@]12[C@@H]3[C@H]4OC(=O)[C@]3(C)C[C@@H]3[C@]1(C)[C@@H](C=C1C(=CC(=O)OC1(C)C)[C@@]3(C)O)O[C@]2(O)[C@H](C)O4 |  | inactive | inactive |  | 
COC(=O)[C@@]1(C)O[C@H]2OC(=O)[C@@H]3[C@H]2[C@@](C)(C[C@H]2C(C)=C4CC(=O)OC(C)(C)C4=CC[C@]32C)C1=O |  | inactive | inactive |  | 
COC(=O)O[C@@H]1C=C2C(=CC(=O)OC2(C)C)[C@H](C)[C@@H]2C[C@@]3(C)C(=O)O[C@H]4O[C@@H](C)C(=O)[C@@H]([C@@]12C)[C@]43O |  | inactive | inactive |  | 
COC(=O)[C@]12[C@@H]3[C@H]4OC(=O)[C@]3(C)C[C@H]3[C@@H](C)C5=CC(=O)OC(C)(C)C5=C[C@@H](O[C@]1(O)[C@H](C)O4)[C@@]32C |  | inactive | inactive |  | 
COC(=O)[C@]12C(=O)[C@H](C)O[C@@H]3OC(=O)[C@](C)(C[C@H]4C(C)=C5CC(=O)OC(C)(C)C5=CC[C@@]41C)[C@@H]32 |  | inactive | inactive |  | 
CC(=O)O[C@@]12CO[C@@H]1C[C@H](O)[C@@]1(C)C(=O)[C@H](O)C3=C(C)[C@@H](OC(=O)[C@H](O)[C@@H](NC(=O)OC(C)(C)C)c4ccccc4)C[C@@](O)([C@@H](OC(=O)c4ccccc4)[C@H]21)C3(C)C [DOCETAXEL ANHYDROUS] |  |  |  | 10.3 nM | 38 nM
COC(=O)[C@]12[C@@H]3[C@H]4OC(=O)[C@]3(C)CC3=C(C)C5=C(C[C@@H](O[C@]1(O)[C@H](C)O4)[C@@]32C)C(C)(C)OC(=O)C5 |  | inactive | inactive |  | 
COC(=O)[C@@]12[C@@]3(C)[C@H]4C=C5C(=CC(=O)OC5(C)C)[C@H](C)[C@@H]3C[C@@]3(C)C(=O)O[C@@H](O[C@@H](C)[C@@]1(O)O4)[C@@]23O |  | inactive | inactive |  | 
